Source: article PMC9289130, “Pharmacokinetic Study of Four Major Bioactive Components of Liandan Xiaoyan Formula in Ulcerative Colitis and Control Rats Using UPLC-MS/MS” (Frontiers in Pharmacology, 2022)
Read-outs that look alike come from different tables or passages of the source.

Assays:
[1] = Pharmacokinetic study in control and DSS-induced UC rats after oral administration of LXF (serum, UPLC-MS/MS); format: in vivo, Sprague-Dawley (SD) rats; conditions: for AUC(0-inf) / AUC(0-t) / Cmax / Tmax / half-life / MRT inf: male, Sprague-Dawley, rat, serum, po, 3.3 g/kg, oral LXF 3.30 g/kg, rat serum, n = 8, mean ± SD; for MRT inf: read-out: MRT0→∞
Method: Sixteen male Sprague-Dawley (SD) rats (220 ± 10 g) were provided from the Liaoning Changsheng Biotechnology Co., Ltd (Benxi, China; with license No. of SCXK, 2020-0001). The rats were kept in an environment (22 ± 2°C, relative humidity 50 ± 5%) under a 12-h light-dark cycle with a free diet and water for 3 days. All experiments on animals were conducted strictly under the related ethics regulations of the Committee on Use and Care of Animals of Guangzhou University of Chinese Medicine (Guangzhou, China) (No. 712052).
All rats were assigned equally and randomly to the control and model groups. The rats of the model group were free to access 4% DSS for 7 days to induce UC, and rats of the control group were given pure water ([Chen et al., 2020]). Before the pharmacokinetics study, the DSS-induced UC rats (model) were established successfully (Supplementary Material Part B).
After fasting for 12 h, the rats were orally administered LXF at a 3.30 g/kg dose according to Prescription preparation of Chinese medicine, volume 10 ([Lu et al., 2021]). Serum samples (approximately 0.5 ml) were collected from the fosse orbital vein using 1.5 ml polythene tubes before the administration and at 0.083, 0.25, 0.5, 1, 1.5, 2.5, 4, 6, 8, 12, 24, 36, and 48 h after dosing and centrifuged immediately at 3,500 rpm for 15 min. Serum was transferred into clean tubes and stored at −80°C.
100 μl of IS solution (960 ng/ml) was added to a 100 μl serum sample and vortex-mixed for 0.5 min, and then 800 μl of methanol was added and vortex-mixed for 3 min. After centrifugation at 12,000 rpm for 15 min (4°C), the supernatant of the mixture was transferred to another vial and evaporated to dryness with nitrogen purging. The residue was resolved with 100 μ of methanol, vortex-mixed for 1 min, and centrifuged at 12,000 rpm for 10 min (4°C). A 2 μl aliquot of the supernatant was injected into the UPLC-MS/MS system for analysis.
Chromatographic analysis was performed using UPLC-MS/MS, utilizing a Finnigan Surveyor auto-sampler and a Finnigan Surveyor LC pump combined with a triple quadrupole TSQ Quantum mass spectrometer electrospray ionization (ESI) interface (Thermo Fisher, Palo Alto, CA). The chromatographic separation was performed on the Waters Acquity UPLC BEH C18 column (2.1 mm × 100 mm; 1.7 µm). The mobile phase consisted of acetonitrile (A) and 0.1% formic acid (B) with a gradient elution program (0-5 min, 20% A-35% A; 5-6 min, 35% A-100% A; 6–8min, 100% A; 8–8.5 min, 100% A-20% A; 8.5–10.5 min, 20% A) at a flow rate of 0.4 ml/min. The column temperature was maintained at 40°C throughout the analysis. The injection volume was 2 μl.
Quantification was performed using multiple reaction monitoring (MRM) in the positive ionization mode, and the optimized MRM parameters of the four analytes and IS are listed in Table 1. The MRM transition, retention time (RT), and collision energy (CE) values were based on Thermo Foundation 2.0. Curtain gas pressure at 35 psi, ion source gas 1 and gas 2 at 55 psi, ion spray voltage at 5500 V, and temperature at 500°C.
Non-compartment model pharmacokinetic parameters, including the time to reach the maximum serum concentration (Tmax), the maximum serum concentration (Cmax), the elimination half-time (T1/2), the area under the serum concentration-time curve (AUC), and mean residence time (MRT), were calculated by DAS (version 3.2.8, Chinese Pharmacological Association, Anhui, China). The difference between the control and model groups was statistically analyzed using SPSS 26.0 (IBM Company, Chicago). All data in this study were subjected to a one-way analysis of variance (ANOVA) and then expressed by mean ± standard deviation (SD). LSD t-test was applied when the homogeneity of variance assumptions was satisfied; otherwise, Dunnett’s t-test was used. A p < 0.05 was considered statistically significant.

[2] = Stability test of QC samples in rat serum; format: in vitro ADME; conditions: n = 6
Method: Quality control (QC) samples at low, middle and high concentrations (61.50, 384.38, and 4,000.00 ng/ml for andrographolide; 24.00, 150.00, and 1,500.00 ng/ml for dehydroandrographolide; 6.91, 43.20, and 450.00 ng/ml for 1-methoxicabony-β-carboline; 6.30, 39.38, and 400.00 ng/ml for 4-methoxy-5-hydroxy-canthin-6-one) were also prepared by the same procedures.
Recovery was determined at three QC levels and calculated by comparing the compound standard peak areas obtained from extracted samples with post-extracted samples spiked with the compound. Matrix effects were calculated by matching spiking post-extracted blank serum samples with corresponding standard clean solutions at three concentrations of QC samples.

[3] = 4°C for 24 h, high QC (nominal 4,000.00 / 1,500.00 / 450.00 / 400.00 ng/ml for compounds 1-4)
[4] = 4°C for 24 h, low QC (nominal 61.50 / 24.00 / 6.91 / 6.30 ng/ml for compounds 1-4)
[5] = 4°C for 24 h, middle QC (nominal 384.38 / 150.00 / 43.20 / 39.38 ng/ml for compounds 1-4)
[6] = 25°C for 12 h, high QC (nominal 4,000.00 / 1,500.00 / 450.00 / 400.00 ng/ml for compounds 1-4)
[7] = 25°C for 12 h, low QC (nominal 61.50 / 24.00 / 6.91 / 6.30 ng/ml for compounds 1-4)
[8] = 25°C for 12 h, middle QC (nominal 384.38 / 150.00 / 43.20 / 39.38 ng/ml for compounds 1-4)
[9] = three freeze-thaw, high QC (nominal 4,000.00 / 1,500.00 / 450.00 / 400.00 ng/ml for compounds 1-4)
[10] = three freeze-thaw, low QC (nominal 61.50 / 24.00 / 6.91 / 6.30 ng/ml for compounds 1-4)
[11] = three freeze-thaw, middle QC (nominal 384.38 / 150.00 / 43.20 / 39.38 ng/ml for compounds 1-4)
[12] = −80°C for 30 days, high QC (nominal 4,000.00 / 1,500.00 / 450.00 / 400.00 ng/ml for compounds 1-4)
[13] = −80°C for 30 days, low QC (nominal 61.50 / 24.00 / 6.91 / 6.30 ng/ml for compounds 1-4)
[14] = −80°C for 30 days, middle QC (nominal 384.38 / 150.00 / 43.20 / 39.38 ng/ml for compounds 1-4)

Compound | AUC(0-inf) ([1]; UC group (4% DSS for 7 days)) [ng·h/mL] | AUC(0-t) ([1]; UC group (4% DSS for 7 days)) [ng·h/mL] | Cmax ([1]; UC group (4% DSS for 7 days)) [ng/mL] | Tmax ([1]; UC group (4% DSS for 7 days)) [h] | half-life ([1]; UC group (4% DSS for 7 days)) [h] | MRT inf ([1]; UC group (4% DSS for 7 days)) [h] | AUC(0-inf) ([1]; control group) [ng·h/mL] | AUC(0-t) ([1]; control group) [ng·h/mL] | Cmax ([1]; control group) [ng/mL] | Tmax ([1]; control group) [h] | half-life ([1]; control group) [h] | MRT inf ([1]; control group) [h] | Stability, mean concentration found [2, 3] | Stability, mean concentration found [2, 4] [ng/mL] | Stability, mean concentration found [2, 5] [ng/mL] | Stability, mean concentration found [2, 6] | Stability, mean concentration found [2, 7] [ng/mL] | Stability, mean concentration found [2, 8] [ng/mL] | Stability, mean concentration found [2, 9] | Stability, mean concentration found [2, 10] [ng/mL] | further results
C=C1CC[C@@H]2[C@](C)(CO)[C@H](O)CC[C@@]2(C)[C@H]1C/C=C1\C=COC1=O [dehydroandrographolide] | 4790 | 4690 | 1150 | 0.38 ± 0.13 | 2.86 ± 2.01 | 5.08 ± 1.53 | 2360 | 2330 | 892 ± 148 | 0.28 ± 0.09 | 2.28 ± 1.69 | 5.04 ± 1.96 | 1,421.52 ± 61.75 ng/mL | 25.71 ± 1.69 | 156.59 ± 14.58 | 1,439.13 ± 52.46 ng/ml | 23.51 ± 0.69 | 153.93 ± 10.00 | 1,428.09 ± 67.73 ng/mL | 21.20 ± 2.30 | Shape of the serum concentration-time curve ([1]; UC group, oral LXF): double peaks; Shape of the serum concentration-time curve ([1]; control group, oral LXF): double peaks; Stability, mean concentration found [2, 11]: 143.60 ± 9.61 ng/mL; Stability, mean concentration found [2, 12]: 1,419.63 ± 51.60 ng/ml; Stability, mean concentration found [2, 13]: 22.46 ± 2.57 ng/mL; Stability, mean concentration found [2, 14]: 151.06 ± 3.31 ng/mL
COC(=O)c1nccc2c1[nH]c1ccccc12 [1-methoxicabony-β-carboline] | 444 ± 154 | 424 ± 143 | 160 ± 18.9 | 1.13 ± 0.23 | 1.2 ± 0.41 | 2.23 ± 0.63 | 219 ± 79.2 | 215 ± 78.4 | 129 ± 33.9 | 0.69 ± 0.37 | 1.02 ± 0.43 | 1.52 ± 0.33 | 442.09 ± 15.98 ng/mL | 7.71 ± 0.12 | 44.64 ± 3.27 | 439.66 ± 16.78 ng/mL | 7.09 ± 0.16 | 42.21 ± 3.37 | 440.84 ± 17.31 ng/mL | 6.63 ± 0.51 | Tmax and MRT0–∞ in the UC group compared with the control group ([1]; oral LXF, p < 0.05): longer; Stability, mean concentration found [2, 11]: 42.04 ± 2.18 ng/mL; Stability, mean concentration found [2, 12]: 436.91 ± 13.57 ng/mL; Stability, mean concentration found [2, 13]: 7.43 ± 0.66 ng/mL; Stability, mean concentration found [2, 14]: 42.66 ± 1.92 ng/mL
C=C1CC[C@@H]2[C@](C)(CO)[C@H](O)CC[C@@]2(C)[C@@H]1C/C=C1/C(=O)OC[C@H]1O [andrographolide] | 18400 | 15900 | 4090 | 0.69 ± 0.26 | 7.4 ± 5.02 | 7.4 ± 5.02 | 7120 | 6430 | 2310 | 0.53 ± 0.21 | 8.77 ± 2.96 | 8.42 ± 2.75 | 3,915.74 ± 98.45 ng/mL | 58.54 ± 4.47 | 383.22 ± 9.64 | 3,896.61 ± 129.89 ng/ml | 56.68 ± 4.20 | 399.59 ± 9.79 | 3,923.07 ± 110.39 ng/mL | 60.13 ± 3.34 | Stability, mean concentration found [2, 11]: 396.68 ± 13.05 ng/mL; Stability, mean concentration found [2, 12]: 3,904.68 ± 126.18 ng/ml; Stability, mean concentration found [2, 13]: 58.97 ± 2.93 ng/mL; Stability, mean concentration found [2, 14]: 370.23 ± 17.30 ng/mL
COc1c(O)c(=O)n2c3ccccc3c3ccnc1c32 [4-methoxy-5-hydroxy-canthin-6-one] | 817 ± 177 | 759 ± 142 | 419 ± 104 | 0.43 ± 0.47 | 3.3 ± 1.52 | 3.66 ± 1.55 | 595 ± 117 | 554 ± 74.2 | 395 ± 97.7 | 0.08 | 3.15 ± 0.96 | 3.59 ± 1.43 | 391.53 ± 10.08 ng/mL | 6.38 ± 0.41 | 39.35 ± 4.12 | 387.02 ± 9.84 ng/mL | 5.50 ± 0.37 | 40.41 ± 3.15 | 386.59 ± 20.07 ng/mL | 5.65 ± 0.12 | Shape of the serum concentration-time curve ([1]; UC group, oral LXF): double peaks; Shape of the serum concentration-time curve ([1]; control group, oral LXF): not showed; Stability, mean concentration found [2, 11]: 41.43 ± 0.76 ng/mL; Stability, mean concentration found [2, 12]: 381.78 ± 17.23 ng/mL; Stability, mean concentration found [2, 13]: 6.39 ± 0.23 ng/mL; Stability, mean concentration found [2, 14]: 42.93 ± 1.44 ng/mL
